pKd: −log10 of the molar value.
Tests used:
[1] = target: T1, CaM (Bos taurus, UniProt P62157); assay: Pull-down assay with immobilized protein and LSM libraries; format: binding, bovine; conditions: H14 library; 1:2 stoichiometry assumed; read-out: Surface mapping KD (apparent)
T1 construct: made in house; host or cells: E. coli BL21 (DE3)
Method in brief: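 CaM buffer was 20 mM HEPES pH 7.4, 150 mM NaCl, 5 mM CaCl2. LSM sublibrary members ([…]) incubated 30 min, RT, with equimolar His-tagged protein on Co-NTA resin. HPLC-MS measured unbound probes; bound fraction relative to resin-only background gave dissociation constants.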

[2] = target: T2, Gal-1 (Homo sapiens, UniProt P09382); assay: as above; format: binding; conditions: H14 library; 1:1 binding assumed; read-out: Surface mapping KD (apparent)
T2 construct: made in house; host or cells: E. coli BL21(DE3)
Method in brief: (§1)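 Buffers were HEPES pH 7.4 with 150 mM NaCl, plus 1 mM TCEP and 1 mM CaCl2 (50 mM HEPES) for S100A4 and S100B, 1 mM TCEP for Gal-1, and no additive for RecQ-WH. Immobilized protein at 64 µM was equilibrated 30 min with the LSM sublibrary, and unbound probes were measured by LC-MS.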

[3] = target: T3, S100A4 (Homo sapiens, UniProt P26447); assay: as above; format: binding; conditions: H14 library; 1:1 binding assumed; read-out: Surface mapping KD (apparent)
T3 construct: made in house; host or cells: Escherichia coli BL21(DE3)
Method in brief: as §1

[4] = target: T4, S100B (Homo sapiens, UniProt P04271); assay: as above; format: binding; conditions: H14 library; 1:1 binding assumed; read-out: Surface mapping KD (apparent)
T4 construct: made in house; host or cells: Escherichia coli BL21(DE3)
T4 sequence (P04271 1-92): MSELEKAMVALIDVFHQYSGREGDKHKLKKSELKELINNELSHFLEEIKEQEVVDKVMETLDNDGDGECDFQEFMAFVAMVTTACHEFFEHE
Method in brief: as §1

[5] = target: T5, RecQ-WH (Escherichia coli, UniProt P15043); assay: as above; set-up: species or system E. coli; conditions: H14 library; 1:1 binding assumed; read-out: Surface mapping KD (apparent)
T5 construct: coding for residues 408– 523 of E. coli RecQ; made in house; host or cells: E. coli BL21(DE3)
Method in brief: as §1

[6] = target: T4, S100B; assay: Competition pull-down with native ligand RSK1 (689–735); format: binding; conditions: H14 library; competitor peptide 200 µM; read-out: Surface mapping KD (apparent), competition
[7] = target: T5, RecQ-WH; assay: Competition pull-down with native ligand SSB-Ct8; format: binding, E. coli; conditions: H14 library; competitor peptide 200 µM; read-out: Surface mapping KD (apparent), competition
[8] = target: T2, Gal-1; assay: Competition pull-down with lactose; format: binding; conditions: H14 library; lactose 10 mM; read-out: Surface mapping KD (apparent), competition
Method in brief: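 His6-tagged proteins immobilized on Co-NTA resin at 64 µM final with 64-member LSM foldamer sublibraries (1 M each, as printed) in pH 7.4 HEPES/NaCl buffers (Ca2+/TCEP per target), 30 min RT; competitor peptides 200 µM final, lactose 10 mM for Gal-1. Bound fractions from LC-MS loss vs protein-free resin; KD assuming 1:1 binding.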

[9] = target: T1, CaM; assay: Competition pull-down with native ligand TRPV1-Ct15; format: binding, bovine; conditions: H14 library; competitor peptide 200 µM; read-out: Surface mapping KD (apparent), competition

T2 sequence (P09382 whole entry): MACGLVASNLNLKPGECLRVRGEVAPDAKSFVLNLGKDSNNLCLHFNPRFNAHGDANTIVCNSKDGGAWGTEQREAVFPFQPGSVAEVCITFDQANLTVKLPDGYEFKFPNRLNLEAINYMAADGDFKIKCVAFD
T5 sequence (P15043 408-523): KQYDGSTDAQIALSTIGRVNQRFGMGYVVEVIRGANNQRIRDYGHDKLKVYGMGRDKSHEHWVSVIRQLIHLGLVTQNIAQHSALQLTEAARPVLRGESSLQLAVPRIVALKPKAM
T3 sequence (P26447 whole entry): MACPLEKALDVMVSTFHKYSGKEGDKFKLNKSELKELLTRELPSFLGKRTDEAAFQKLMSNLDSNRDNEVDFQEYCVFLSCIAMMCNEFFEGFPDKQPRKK

| SMILES | pKd [1] | pKd [2] | pKd [3] | pKd [4] | pKd [5] | pKd [6] | pKd [7] | pKd [8] | pKd [9] |
| --- | --- | --- | --- | --- | --- | --- | --- | --- | --- |
| NC(=O)[C@H]1CCCC[C@@H]1NC(=O)C[C@H](Cc1c[nH]c2ccccc12)NC(=O)[C@H]1CCCC[C@@H]1NC(=O)[C@H]1CCCC[C@@H]1NC(=O)C[C@H](CO)NC(=O)[C@H]1CCCC[C@@H]1N [H14 SW] | 4.64 | 3.82 | 3.75 | 4.10 | 4.14 | 3.34 | 3.58 | 3.75 |  |
| C[C@@H](O)[C@@H](CC(=O)N[C@H]1CCCC[C@@H]1C(=O)N[C@H]1CCCC[C@@H]1C(=O)N[C@H](CC(=O)N[C@H]1CCCC[C@@H]1C(N)=O)Cc1ccccc1)NC(=O)[C@H]1CCCC[C@@H]1N [H14 TF] | 3.79 | 3.85 | 4.37 | 4.36 | 3.39 | 3.53 |  | 3.66 | 4.03 |
| NC(=O)[C@H]1CCCC[C@@H]1NC(=O)C[C@H](CC(=O)O)NC(=O)[C@H]1CCCC[C@@H]1NC(=O)[C@H]1CCCC[C@@H]1NC(=O)C[C@H](Cc1c[nH]c2ccccc12)NC(=O)[C@H]1CCCC[C@@H]1N [H14 WD] | 3.51 |  |  |  | 3.84 |  | 3.32 |  |  |
| NCCCC[C@@H](CC(=O)N[C@H]1CCCC[C@@H]1C(N)=O)NC(=O)[C@H]1CCCC[C@@H]1NC(=O)[C@H]1CCCC[C@@H]1NC(=O)C[C@H](Cc1c[nH]c2ccccc12)NC(=O)[C@H]1CCCC[C@@H]1N [H14 WK] | 5.96 | 3.58 | 3.87 | 4.40 | 3.54 | 3.39 |  | 3.60 | 3.70 |
| N=C(N)NCCC[C@@H](CC(=O)N[C@H]1CCCC[C@@H]1C(N)=O)NC(=O)[C@H]1CCCC[C@@H]1NC(=O)[C@H]1CCCC[C@@H]1NC(=O)C[C@H](Cc1c[nH]c2ccccc12)NC(=O)[C@H]1CCCC[C@@H]1N [H14 WR] | 6.30 | 3.56 | 4.09 | 4.49 | 3.57 | 3.78 |  | 3.55 | 3.78 |
| C[C@@H](O)[C@@H](CC(=O)N[C@H]1CCCC[C@@H]1C(N)=O)NC(=O)[C@H]1CCCC[C@@H]1NC(=O)[C@H]1CCCC[C@@H]1NC(=O)C[C@H](Cc1c[nH]c2ccccc12)NC(=O)[C@H]1CCCC[C@@H]1N [H14 WT] | 5.22 |  | 3.80 | 3.97 | 3.78 | 3.62 |  |  | 3.87 |
| CC[C@H](C)[C@@H](CC(=O)N[C@H]1CCCC[C@@H]1C(N)=O)NC(=O)[C@H]1CCCC[C@@H]1NC(=O)[C@H]1CCCC[C@@H]1NC(=O)C[C@H](Cc1ccc(O)cc1)NC(=O)[C@H]1CCCC[C@@H]1N [H14 YI] | 5.70 | 3.83 | 4.72 | 4.21 | 3.82 | 3.70 |  | 3.59 | 3.37 |
| CC(C)C[C@@H](CC(=O)N[C@H]1CCCC[C@@H]1C(N)=O)NC(=O)[C@H]1CCCC[C@@H]1NC(=O)[C@H]1CCCC[C@@H]1NC(=O)C[C@H](Cc1ccc(O)cc1)NC(=O)[C@H]1CCCC[C@@H]1N [H14 YL] | 5.70 | 3.83 | 4.72 | 4.21 | 3.82 | 3.70 |  | 3.59 | 3.37 |
| CSCC[C@@H](CC(=O)N[C@H]1CCCC[C@@H]1C(N)=O)NC(=O)[C@H]1CCCC[C@@H]1NC(=O)[C@H]1CCCC[C@@H]1NC(=O)C[C@H](Cc1ccc(O)cc1)NC(=O)[C@H]1CCCC[C@@H]1N [H14 YM] | 5.15 | 4.01 | 4.05 | 3.75 | 3.58 | 3.46 |  | 3.88 | 3.40 |
| NC(=O)[C@H]1CCCC[C@@H]1NC(=O)C[C@H](Cc1ccc(O)cc1)NC(=O)[C@H]1CCCC[C@@H]1NC(=O)[C@H]1CCCC[C@@H]1NC(=O)C[C@H](Cc1ccc(O)cc1)NC(=O)[C@H]1CCCC[C@@H]1N [H14 YY] | 5.15 | 3.43 | 4.15 | 3.92 | 3.94 | 3.41 | 3.53 |  |  |
